Data from patent US10787448B2, “Indolizino [3,2-C] quinoline-based fluorescent probe” (SEOUL NATIONAL UNIVERSITY R & DB FOUNDATION, priority 2015, dated 2020).
“Also recorded” adds a separate entry of the source.

Legend:
[1] = Photostability of fluorescence in aqueous solution or ethanol (natural light, blue light); type: physicochemical; conditions: aqueous solution; for stability of fluorescence under irradiation with blue light: blue light for 2 hours; for photostability: fluorescence over time: natural light, up to 6 hours
Method: As a candidate material that can be applied to a fluorescent probe, to confirm how long fluorescence persists in materials with high fluorescence intensity in an aqueous solution among the indolizino[3,2-c]quinoline compounds, photostability according to time in an aqueous solution or ethanol solvent was evaluated as follows.
First, fluorescence of a corresponding material was measured using a cuvette, and the fluorescence per time for the cuvette sample was remeasured until 6 to 7 hours in a natural light state so as to confirm fluorescence stability.
Further, from the above example, when the indolizino[3,2-c]quinoline compounds including the IQ 3, 4, 6 and 8 compounds in which the fluorescence is stably maintained in an aqueous solution for approximately 6 hours are represented by Formula X, some materials in which neither A, B, C nor D ring has a substituent were selected and irradiated with blue light in an aqueous solution, and then a stability experiment was carried out to confirm the maintenance of the fluorescence.

[2] = biological target: Human Serum Albumin (HSA) (Homo sapiens, UniProt P02768); experiment: Protein binding by fluorescence change (FRET, Job's plot, titration, quantum yield)
Method: Using a fluorescence spectrophotometer, it was confirmed whether the indolizino[3,2-c]quinoline compound of the present invention binds to a protein. Specifically, among the indolizino[3,2-c]quinoline compounds, 13 types of compounds with high fluorescence in a Tris buffer (pH 7.5) were added to Bovine Serum Albumin (BSA) and Human Serum Albumin (HSA) to observe a fluorescence change.

HeLa cells = experiment: Cell permeability: fluorescence imaging and live cell confocal imaging; type: cell-based; conditions: HeLa cells
Method: HeLa cells were seeded in a 96-well plate and incubated for 24 hours. The cells were treated with the indolizino[3,2-c]quinoline compounds, and incubated at 37° C. under a 5% CO2 condition for 30 minutes. After removal of the medium, the cells were washed with 1×DPBS. The washed cells were fixed with 4% formaldehyde at room temperature for 10 minutes, and washed with 1×DPBS. A cell image was screened using an Operetta HTS imaging system (PerkinElmer).
After HeLa cells were seeded to account for 70 to 80% of the area of a confocal dish (SPL life science) and overnight cultured, the indolizino[3,2-c]quinoline compounds (10 μM) prepared by mixing fresh DMEM after removal of the existing DMEM medium were dispensed, and the cells were incubated for 30 minutes to 1 hour at 37° C. Afterward, if needed, LysoTracker (50 nM) was mixed with DMEM to remove the existing medium and then dispensed to the cells, and the cells were incubated for 30 minutes at 37° C. After incubation, without washing, the cells were examined by a confocal laser microscope (Leica TCS SP8 SMD, Leica, Mannheim, Germany). However, when co-stained with a LysoTracker, the cells were washed with DPBS twice before the microscopy. […]

cells = experiment: Co-staining / co-localization with DAPI, MitoTracker or LysoTracker; type: cell-based; conditions: for organelle selectivity by co-localization: MitoTracker or LysoTracker
[3] = Analysis of optical characteristics (absorption, fluorescence emission, quantum yield) in solvents; type: physicochemical; conditions: for Fluorescence Emission Intensity / Peak emission wavelength λmax em(nm) / Relative fluorescence Emission Intensitynorm: H2O at 2 μM; for Peak emission wavelength λmax em(nm): excited at the longest absorption maxima; for Relative fluorescence Emission Intensitynorm: normalized fluorescence intensity
How it was run: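 Optical properties of indolizinoquinoline compounds were examined in solvents. A 10 mM DMSO stock was diluted into the solvent, and fluorescence emission spectra were recorded at 20° C. on a JASCO FP-6500 spectrofluorometer. Absorption spectra were taken at room temperature on a Perkin Elmer Lamda 20 UV/VIS spectrometer. Fluorescence quantum yield (Φ) was determined.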

[4] = test system: DNA oligomers (48 bp) tetO sequences; experiment: Binding to DNA by fluorescence spectrophotometer; conditions: hybridized tetO DNA oligomers added, 1 minute incubation
Method: Using a fluorescence spectrophotometer, it was confirmed whether the indolizino[3,2-c]quinoline compound of the present invention binds to DNA. First, DNA oligomers (48 bp) used in the experiment are tetO sequences, and the base sequences thereof are as follows.
The same molarities of oligomers were mixed while being heated at 95° C. for 5 minutes and cooled to room temperature for 2 hours to hybridize, the fluorescence of each of the indolizino[3,2-c]quinoline compounds of the present invention was measured, a corresponding equivalent of DNA oligomer was added to a cuvette, and then incubated while blocking light for 1 minute to measure fluorescence again.

PDEδ [5] = biological target: T1, PDEδ (Homo sapiens, UniProt O43924); experiment: Titration using fluorescence polarization; type: binding; conditions: 0.5 μM compound, PDEδ protein from 0 to 32 μM
T1 construct: made in house; host or cells: E. coli
Method: To confirm whether the indolizino[3,2-c]quinoline compound can bind to a specific intracellular protein, in the presence of 0.5 μM of the indolizino[3,2-c]quinoline compound, titration was performed by increasing the concentration of the PDEδ protein from 0 to 32 μM to measure a polarization degree.

PDEδ [6] = biological target: T1, PDEδ; experiment: Titration using fluorescence polarization; type: binding; conditions: Table 9

T1 sequence (O43924 whole entry): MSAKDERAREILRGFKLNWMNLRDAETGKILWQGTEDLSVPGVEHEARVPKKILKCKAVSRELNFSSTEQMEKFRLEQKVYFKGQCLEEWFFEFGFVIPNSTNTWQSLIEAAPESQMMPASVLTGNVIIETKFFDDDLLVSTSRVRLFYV
Sequence of Human Serum Albumin (HSA) (P02768 25-609): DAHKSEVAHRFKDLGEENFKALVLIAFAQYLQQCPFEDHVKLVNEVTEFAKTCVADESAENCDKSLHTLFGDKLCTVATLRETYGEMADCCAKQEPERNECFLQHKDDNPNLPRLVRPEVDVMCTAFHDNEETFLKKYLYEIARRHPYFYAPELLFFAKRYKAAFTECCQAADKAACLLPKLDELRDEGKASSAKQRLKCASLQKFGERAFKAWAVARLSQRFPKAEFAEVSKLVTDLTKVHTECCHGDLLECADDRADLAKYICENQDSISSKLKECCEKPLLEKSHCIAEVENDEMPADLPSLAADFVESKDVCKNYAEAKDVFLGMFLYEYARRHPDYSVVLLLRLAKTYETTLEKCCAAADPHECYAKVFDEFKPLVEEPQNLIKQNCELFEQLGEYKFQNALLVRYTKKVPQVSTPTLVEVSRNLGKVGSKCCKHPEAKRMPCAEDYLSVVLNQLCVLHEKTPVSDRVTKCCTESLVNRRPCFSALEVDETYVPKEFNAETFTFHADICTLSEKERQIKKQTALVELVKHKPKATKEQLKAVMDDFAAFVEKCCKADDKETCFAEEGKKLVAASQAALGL

Structure (SMILES): Cc1ccc(-c2nc3ccccc3c3cc4ccccn4c23)cc1 [IQ 3, 6-(p-tolyl)indolizino[3,2-c]quinoline]
- stability of fluorescence under irradiation with blue light [1]: still stably exhibited fluorescence intensity
- photostability: fluorescence over time [1]: stably maintained in an aqueous solution up to 6 hours with almost no change
- fluorescence change on binding to HSA [2]: increasing fluorescence intensity

Structure (SMILES): c1ccc(-c2nc3ccccc3c3cc4ccccn4c23)cc1 [IQ 4, 6-phenylindolizino[3,2-c]quinoline]
- stability of fluorescence under irradiation with blue light [1]: still stably exhibited fluorescence intensity
- photostability: fluorescence over time [1]: stably maintained in an aqueous solution up to 6 hours with almost no change
- fluorescence change on binding to HSA [2]: increasing fluorescence intensity

Structure (SMILES): COc1ccc(-c2nc3ccccc3c3cc4ccccn4c23)cc1 [IQ 6, 6-(4-methoxyphenyl)indolizino[3,2-c]quinoline]
- intracellular molecule recognized (HeLa cells): recognized intracellular RNA
- intracellular organelles in which fluorescence is detected (HeLa cells): intensively distributed in cytoplasmic and nucleolus areas
- staining pattern compared with conventional dyes (cells): an aspect similar to RNA select for staining RNA
- solvent-dependent (environment-sensitive) tendency of the emission [3]: solvatochromic effect
- peak emission (λmax) ([3]; ethanol solvent (EtOH)): 511 nm
- quantum yield ([3]; in ethanol using coumarin 153 as a standard): 0.816
- stability of fluorescence under irradiation with blue light [1]: still stably exhibited fluorescence intensity
- photostability: fluorescence over time [1]: stably maintained in an aqueous solution up to 6 hours with almost no change

Structure (SMILES): COc1ccc(-c2nc3ccccc3c3cc4ccccn4c23)cc1OC [IQ 8, 6-(3,4-dimethoxyphenyl)indolizino[3,2-c]quinoline]
- intracellular organelles in which fluorescence is detected (HeLa cells): stained intensively in the nuclear area
- photostability: fluorescence over time [1]: stably maintained in an aqueous solution up to 6 hours with almost no change
- fluorescence change on binding to HSA [2]: increasing fluorescence intensity

Structure (SMILES): COc1cc(OC)cc(-c2nc3ccccc3c3cc4c(C)cccn4c23)c1 [IQ 16, 6-(3,5-dimethoxyphenyl)-11-methylindolizino[3,2-c]quinoline]
- intracellular molecule recognized (HeLa cells): recognized DNA
- intracellular organelles in which fluorescence is detected (HeLa cells): stained intensively in the nuclear area
- staining pattern compared with conventional dyes (cells): staining almost similar to DAPI
- fluorescence change on binding to HSA [2]: increasing fluorescence intensity

Structure (SMILES): Cc1cccn2c1cc1c3ccccc3nc(-c3ccco3)c12 [IQ 18, 6-(furan-2-yl)-11-methylindolizino[3,2-c]quinoline]
- intracellular organelles in which fluorescence is detected (HeLa cells): distributed in the mitochondria
- change in fluorescence intensity on addition of DNA oligomer [4]: gradually decreased
- shift of maximum emission wavelength on addition of DNA oligomer [4]: shorter wavelength
- fluorescence change on light irradiation (cells): increasing fluorescence by receiving light; also recorded: fluorescence is increased
- organelle selectivity by co-localization (cells): selectively stains the mitochondria
- Pearson's coefficient (cells; co-localization experiment with MitoTracker): ≥ 0.8

Structure (SMILES): COc1ccc(-c2nc3ccccc3c3cc4cc(/C=C/c5ccccc5)ccn4c23)cc1 [IQ-B19, (E)-6-(4-methoxyphenyl)-10-styrylindolizino[3,2-c]quinoline]
- organelle selectivity by co-localization (cells): selectively present in the lysosome
- fluorescence (intensity, in words) [3]: high fluorescence in other solvents as well as an aqueous solution

Structure (SMILES): Brc1ccc(-c2nc3ccccc3c3cc4ccccn4c23)cc1 [compound 1]
- Kd (PDEδ [5]): 284 nM
- kmax em(nm) (PDEδ [6]): 530 nm
- λabs(nm) (PDEδ [6]): 430 nm
- Maximum absorption wavelength λmax abs(nm) [3]: 400 nm
- quantum yield (Φ) ([3]; DW, standard Rhodamine 6G): 0.015
- quantum yield (Φ) ([3]; EtOH, standard Coumarin 153): 0.636
- Fluorescence Emission Intensity [3]: 32.7
- Peak emission wavelength λmax em(nm) [3]: 522 nm
- Relative fluorescence Emission Intensitynorm [3]: 0.14

Structure (SMILES): Cc1ccc(-c2nc3ccccc3c3cc4ccccn4c23)cc1 [compound 3]
- change in fluorescence intensity on addition of DNA oligomer [4]: Decrease in fluorescence intensity
- Kd (PDEδ [5]): 491 nM
- kmax em(nm) (PDEδ [6]): 526 nm
- λabs(nm) (PDEδ [6]): 440 nm
- quantum yield (Φ) ([3]; DW, standard Rhodamine 6G): 0.068
- quantum yield (Φ) ([3]; EtOH, standard Coumarin 153): 0.839
- Fluorescence Emission Intensity [3]: 59.7
- Peak emission wavelength λmax em(nm) [3]: 519 nm
- Relative fluorescence Emission Intensitynorm [3]: 0.26

Structure (SMILES): c1ccc(-c2nc3ccccc3c3cc4ccccn4c23)cc1 [compound 4]
- change in fluorescence intensity on addition of DNA oligomer [4]: Decrease in fluorescence intensity
- Kd (PDEδ [5]): 505 nM
- kmax em(nm) (PDEδ [6]): 515 nm
- λabs(nm) (PDEδ [6]): 430 nm
- quantum yield (Φ) ([3]; DW, standard Rhodamine 6G): 0.039
- quantum yield (Φ) ([3]; EtOH, standard Coumarin 153): 0.779
- Fluorescence Emission Intensity [3]: 55.0
- Peak emission wavelength λmax em(nm) [3]: 519 nm
- Relative fluorescence Emission Intensitynorm [3]: 0.24

Structure (SMILES): c1ccc2c(-c3nc4ccccc4c4cc5ccccn5c34)cccc2c1 [compound 9]
- Kd (PDEδ [5]): 1540 nM
- kmax em(nm) (PDEδ [6]): 515 nm
- λabs(nm) (PDEδ [6]): 430 nm
- Absorption coefficient (cm^−1M^−1) [3]: 11656 cm^−1M^−1
- Absorption wavelength λex(nm) [3]: 405 nm
- Emission wavelength λem(nm) [3]: 515 nm
- λem (nm) ([3]; DMF): 478 nm
- λem (nm) ([3]; DMSO): 514 nm
- λem (nm) ([3]; EtOH): 465.5 nm
- λem (nm) ([3]; EtOH:CHCl3 = 1:5): 467.5 nm
- λem (nm) ([3]; H2O): 516 nm
- Fluorescence Emission Intensity [3]: 232.9
- Peak emission wavelength λmax em(nm) [3]: 514 nm
- λem (nm) ([3]; MC): 469 nm
- Fluorescence quantum yield (Φ) ([3]; Rhodamine 6G as a standard (Φ = 0.86 in water)): 0.053
- Relative fluorescence Emission Intensitynorm [3]: 1.00

Structure (SMILES): c1coc(-c2nc3ccccc3c3cc4ccccn4c23)c1 [compound 42]
- Kd (PDEδ [5]): 425 nM
